Test results taken from US20210070748A1, “INHIBITORS OF BRUTONS TYROSINE KINASE” (Pharmacyclics LLC, priority 2015, published 2021).

Experiments:
Format in all cases: biochemical
[1] = target: T1, ITK (Homo sapiens, UniProt Q08881); assay: Inhibition of a panel of kinases, in vitro HotSpot kinase assay: ITK; settings: D-compounds panel data; 1 μM ATP
T1 sequence (Q08881 1-620): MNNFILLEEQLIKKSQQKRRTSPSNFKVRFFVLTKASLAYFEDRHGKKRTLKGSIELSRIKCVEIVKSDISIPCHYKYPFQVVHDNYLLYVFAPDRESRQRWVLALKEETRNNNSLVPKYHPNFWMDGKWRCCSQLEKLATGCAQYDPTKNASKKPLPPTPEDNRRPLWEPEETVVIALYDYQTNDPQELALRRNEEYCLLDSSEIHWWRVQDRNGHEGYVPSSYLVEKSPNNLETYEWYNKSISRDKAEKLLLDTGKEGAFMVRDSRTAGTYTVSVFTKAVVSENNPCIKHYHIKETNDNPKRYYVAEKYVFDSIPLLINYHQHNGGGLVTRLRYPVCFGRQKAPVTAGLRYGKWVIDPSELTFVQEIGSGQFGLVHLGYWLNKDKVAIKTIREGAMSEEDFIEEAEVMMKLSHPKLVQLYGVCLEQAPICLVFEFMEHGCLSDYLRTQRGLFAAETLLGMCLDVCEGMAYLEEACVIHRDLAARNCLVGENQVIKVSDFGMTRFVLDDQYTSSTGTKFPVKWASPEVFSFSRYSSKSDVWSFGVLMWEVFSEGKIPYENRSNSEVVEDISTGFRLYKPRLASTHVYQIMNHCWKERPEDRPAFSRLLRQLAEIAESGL
Experimental: (§1) The degree of inhibition of a panel of kinases is determined using the in vitro HotSpot kinase assay (purified enzymes, ^33P-ATP, an appropriate substrate and 1 μM ATP).

[2] = target: T2, BTK-WT (Homo sapiens, UniProt Q06187); assay: Btk in vitro inhibitory activity (one of Method A TR-FRET, Method B electrophoretic mobility shift, Method C radiometric filter binding); settings: D-compounds panel data; read-out: IC50 BTK-WT
T2 construct: purified from insect cells as a full-length construct containing an N-terminal 6X-His tag; His6 (N); made in house; host or cells: insect cells (baculovirus Sf21 in Method B)
T2 sequence (Q06187 whole entry): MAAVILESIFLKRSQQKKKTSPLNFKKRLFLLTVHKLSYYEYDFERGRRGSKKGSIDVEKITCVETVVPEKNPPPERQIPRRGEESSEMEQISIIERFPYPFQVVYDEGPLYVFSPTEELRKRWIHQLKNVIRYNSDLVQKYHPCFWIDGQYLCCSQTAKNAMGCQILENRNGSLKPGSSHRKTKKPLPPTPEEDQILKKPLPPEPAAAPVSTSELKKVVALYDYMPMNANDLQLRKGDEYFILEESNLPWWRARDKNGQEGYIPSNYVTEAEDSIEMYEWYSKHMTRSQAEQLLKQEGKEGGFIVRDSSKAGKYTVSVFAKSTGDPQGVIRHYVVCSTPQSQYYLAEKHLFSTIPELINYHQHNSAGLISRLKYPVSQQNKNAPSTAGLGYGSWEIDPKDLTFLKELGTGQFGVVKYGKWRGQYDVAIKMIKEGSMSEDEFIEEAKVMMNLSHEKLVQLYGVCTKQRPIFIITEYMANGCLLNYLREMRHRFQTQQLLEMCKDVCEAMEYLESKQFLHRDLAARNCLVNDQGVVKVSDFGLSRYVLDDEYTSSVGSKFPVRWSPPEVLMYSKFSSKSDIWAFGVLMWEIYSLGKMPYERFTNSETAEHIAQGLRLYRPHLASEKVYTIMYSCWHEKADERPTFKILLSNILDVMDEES

[3] = target: SRC (Homo sapiens, UniProt P12931); assay: Inhibition of a panel of kinases, in vitro HotSpot kinase assay: SRC; settings: D-compounds panel data; 1 μM ATP
SRC, sequence (P12931 whole entry): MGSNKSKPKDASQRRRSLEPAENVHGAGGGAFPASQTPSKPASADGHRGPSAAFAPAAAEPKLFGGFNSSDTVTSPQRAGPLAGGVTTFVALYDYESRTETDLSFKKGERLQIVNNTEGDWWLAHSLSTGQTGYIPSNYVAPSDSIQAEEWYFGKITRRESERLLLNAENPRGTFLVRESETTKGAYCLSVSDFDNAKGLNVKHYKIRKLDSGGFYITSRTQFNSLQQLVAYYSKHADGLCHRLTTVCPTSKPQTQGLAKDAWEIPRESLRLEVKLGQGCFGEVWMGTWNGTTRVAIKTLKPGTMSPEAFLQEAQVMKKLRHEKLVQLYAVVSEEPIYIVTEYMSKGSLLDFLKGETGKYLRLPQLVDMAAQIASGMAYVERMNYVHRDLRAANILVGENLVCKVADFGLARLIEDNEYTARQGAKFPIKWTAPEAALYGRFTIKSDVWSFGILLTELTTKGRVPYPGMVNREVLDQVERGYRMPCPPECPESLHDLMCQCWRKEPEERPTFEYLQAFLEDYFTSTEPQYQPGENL
Experimental: as §1

| IC50 [1] | IC50 [2] | IC50 [3] | SMILES |
| --- | --- | --- | --- |
| 10 to 100 nM | ≤ 10 nM | 10 to 100 nM | C[C@@H]1[C@H](NC(=O)c2ccc(N(C)C)cc2)CCCN1c1cnc(C(N)=O)c(Nc2ccc(N3CCN(C)CC3)cc2)n1 [Example D-196, 5-[(2R,3R)-3-[4-(dimethylamino)benzamido]-2-methylpiperidin-1-yl]-3-{[4-(4-methylpiperazin-1-yl)phenyl]amino}pyrazine-2-carboxamide] |
| 100 to 1000 nM | ≤ 10 nM | 100 to 1000 nM | CC(C)c1ccc(C(=O)N[C@@H]2CCCN(c3cnc(C(N)=O)c(Nc4cnn(C)c4)n3)[C@@H]2C)cc1 [Example D-197, 3-[(1-methyl-1H-pyrazol-4-yl)amino]-5-[(2R,3R)-2-methyl-3-[4-(propan-2-yl)benzamido]piperidin-1-yl]pyrazine-2-carboxamide] |
| 100 to 1000 nM | ≤ 10 nM | 10 to 100 nM | C[C@@H]1[C@H](NC(=O)c2ncc(C3CC3)cn2)CCCN1c1cnc(C(N)=O)c(Nc2cnn(C)c2)n1 [Example D-198, 5-[(2R,3R)-3-(5-cyclopropylpyrimidine-2-amido)-2-methylpiperidin-1-yl]-3-[(1-methyl-1H-pyrazol-4-yl)amino]pyrazine-2-carboxamide] |
| 10 to 100 nM | ≤ 10 nM | 10 to 100 nM | C[C@@H]1[C@H](NC(=O)c2ccc(C3CC3)nc2)CCCN1c1cnc(C(N)=O)c(Nc2ccc(N3CCN(C)CC3)cc2)n1 [Example D-203, 5-[(2R,3R)-3-(6-cyclopropylpyridine-3-amido)-2-methylpiperidin-1-yl]-3-{[4-(4-methylpiperazin-1-yl)phenyl]amino}pyrazine-2-carboxamide] |
| 100 to 1000 nM | ≤ 10 nM | 10 to 100 nM | C[C@@H]1[C@H](NC(=O)c2cnc(C3CC3)cn2)CCCN1c1cnc(C(N)=O)c(Nc2cnn(C)c2)n1 [Example D-205, 5-[(2R,3R)-3-(5-cyclopropylpyrazine-2-amido)-2-methylpiperidin-1-yl]-3-[(1-methyl-1H-pyrazol-4-yl)amino]pyrazine-2-carboxamide] |
| 100 to 1000 nM | ≤ 10 nM | 10 to 100 nM | Cn1cc(Nc2nc(N3CCC[C@@H](n4ccc5cc(C6CC6)ccc5c4=O)C3)nnc2C(N)=O)cn1 [Example D-206, 3-[(3R)-3-(6-cyclopropyl-1-oxo-1,2-dihydroisoquinolin-2-yl)piperidin-1-yl]-5-[(1-methyl-1H-pyrazol-4-yl)amino]-1,2,4-triazine-6-carboxamide] |
| 1000 to 10000 nM | ≤ 10 nM | 100 to 1000 nM | C[C@@H]1[C@H](NC(=O)c2ccc(C3CC3)cc2)CCCN1c1cnc(C(N)=O)c(Nc2cnn(C)c2)c1 [Example D-207, 5-[(2R,3R)-3-(4-cyclopropylbenzamido)-2-methylpiperidin-1-yl]-3-[(1-methyl-1H-pyrazol-4-yl)amino]pyridine-2-carboxamide] |
| 100 to 1000 nM | ≤ 10 nM | 10 to 100 nM | C[C@@H]1[C@H](NC(=O)c2ccc(C(C)(C)C)cn2)CCCN1c1cnc(C(N)=O)c(Nc2cnn(C)c2)n1 [Example D-208, 5-[(2R,3R)-3-(5-tert-butylpyridine-2-amido)-2-methylpiperidin-1-yl]-3-[(1-methyl-1H-pyrazol-4-yl)amino]pyrazine-2-carboxamide] |
| 1000 to 10000 nM | 10 to 100 nM | 100 to 1000 nM | CN1CCN([C@@H]2CCCN(c3cnc(C(N)=O)c(Nc4cnn(C)c4)n3)C2)C1=O [Example D-209, 3-[(1-methyl-1H-pyrazol-4-yl)amino]-5-[(3R)-3-(3-methyl-2-oxoimidazolidin-1-yl)piperidin-1-yl]pyrazine-2-carboxamide] |
| 100 to 1000 nM | ≤ 10 nM | 100 to 1000 nM | Cc1ncc(Nc2nc(N3CCC[C@@H](NC(=O)c4ccc(C5CC5)cc4)[C@H]3C)cnc2C(N)=O)s1 [Example D-210, 5-[(2R,3R)-3-(4-cyclopropylbenzamido)-2-methylpiperidin-1-yl]-3-[(2-methyl-1,3-thiazol-5-yl)amino]pyrazine-2-carboxamide] |
| 100 to 1000 nM | ≤ 10 nM | 10 to 100 nM | C[C@@H]1[C@H](NC(=O)c2ccc(C3CC3)cc2)CCCN1c1cnc(C(N)=O)c(Nc2ccc(OC3CCN4CCCC4C3)cc2)n1 (stereo partly drawn) [Example D-211, 5-[(2R,3R)-3-(4-cyclopropylbenzamido)-2-methylpiperidin-1-yl]-3-{[4-(octahydroindolizin-7-yloxy)phenyl]amino}pyrazine-2-carboxamide] |
| 100 to 1000 nM | ≤ 10 nM | 10 to 100 nM | C[C@@H]1[C@H](NC(=O)c2ccc(C3(O)CCCC3)cc2)CCCN1c1cnc(C(N)=O)c(Nc2cnn(C)c2)n1 [Example D-212, 5-[(2R,3R)-3-[4-(1-hydroxycyclopentyl)benzamido]-2-methylpiperidin-1-yl]-3-[(1-methyl-1H-pyrazol-4-yl)amino]pyrazine-2-carboxamide] |
| 1000 to 10000 nM | ≤ 10 nM | 100 to 1000 nM | C[C@@H]1[C@H](NC(=O)c2ccc(C3CC3)cc2)CCCN1c1cnc(C(N)=O)c(Nc2cnn(CC(C)(C)O)c2)n1 [Example D-215, 5-[(2R,3R)-3-(4-cyclopropylbenzamido)-2-methylpiperidin-1-yl]-3-{[1-(2-hydroxy-2-methylpropyl)-1H-pyrazol-4-yl]amino}pyrazine-2-carboxamide] |
| 100 to 1000 nM | ≤ 10 nM | 10 to 100 nM | C[C@@H]1[C@H](NC(=O)c2ccc3c(c2)OC(F)(F)O3)CCCN1c1cnc(C(N)=O)c(Nc2cnn(C)c2)n1 [Example D-216, 5-[(2R,3R)-3-(2,2-difluoro-2H-1,3-benzodioxole-5-amido)-2-methylpiperidin-1-yl]-3-[(1-methyl-1H-pyrazol-4-yl)amino]pyrazine-2-carboxamide] |
| 100 to 1000 nM | ≤ 10 nM | 10 to 100 nM | C[C@@H]1[C@H](NC(=O)c2ccc(N(C)CCO)cc2)CCCN1c1cnc(C(N)=O)c(Nc2cnn(C)c2)n1 [Example D-217, 5-[(2R,3R)-3-{4-[(2-hydroxyethyl)(methyl)amino]benzamido}-2-methylpiperidin-1-yl]-3-[(1-methyl-1H-pyrazol-4-yl)amino]pyrazine-2-carboxamide] |
| 100 to 1000 nM | ≤ 10 nM | 10 to 100 nM | CCN(CC)c1ccc(C(=O)N[C@@H]2CCCN(c3cnc(C(N)=O)c(Nc4cnn(C)c4)n3)[C@@H]2C)cc1 [Example D-218, 5-[(2R,3R)-3-[4-(diethylamino)benzamido]-2-methylpiperidin-1-yl]-3-[(1-methyl-1H-pyrazol-4-yl)amino]pyrazine-2-carboxamide] |
| 100 to 1000 nM | ≤ 10 nM | 10 to 100 nM | C[C@@H]1[C@H](NC(=O)c2ccc(OC3CC3)cc2)CCCN1c1cnc(C(N)=O)c(Nc2cnn(C)c2)n1 [Example D-219, 5-[(2R,3R)-3-(4-cyclopropoxybenzamido)-2-methylpiperidin-1-yl]-3-[(1-methyl-1H-pyrazol-4-yl)amino]pyrazine-2-carboxamide] |
| > 10000 nM | 1000 to 10000 nM | 1000 to 10000 nM | CC(C)c1ccc(S(=O)(=O)N[C@@H]2CCCN(c3cnc(C(N)=O)c(Nc4cnn(C)c4)n3)[C@@H]2C)cc1 [Example D-220, 3-[(1-methyl-1H-pyrazol-4-yl)amino]-5-[(2R,3R)-2-methyl-3-[4-(propan-2-yl)benzenesulfonamido]piperidin-1-yl]pyrazine-2-carboxamide] |
| 1000 to 10000 nM | ≤ 10 nM | 100 to 1000 nM | C[C@@H]1[C@H](NC(=O)c2ccc(C3(C(F)(F)F)CC3)cc2)CCCN1c1cnc(C(N)=O)c(Nc2cnn(C)c2)n1 [Example D-221, 3-[(1-Methyl-1H-pyrazol-4-yl)amino]-5-[(2R,3R)-2-methyl-3-{4-[1-(trifluoromethyl)cyclopropyl]benzamido}piperidin-1-yl]pyrazine-2-carboxamide] |
| > 10000 nM | ≤ 10 nM | 1000 to 10000 nM | CC(C)c1ccc(C(=O)N[C@@H]2CCCN(c3cnc(C(N)=O)c(Nc4cnn(C)c4)n3)C2)cc1 [Example D-222, 3-[(1-Methyl-1H-pyrazol-4-yl)amino]-5-[(3R)-3-[4-(propan-2-yl)benzamido]piperidin-1-yl]pyrazine-2-carboxamide] |
| 1000 to 10000 nM | ≤ 10 nM | 100 to 1000 nM | C[C@@H]1[C@H](NC(=O)c2ccc(C(C)(C)C)cc2F)CCCN1c1cnc(C(N)=O)c(Nc2cnn(C)c2)n1 [Example D-223, 5-[(2R,3R)-3-(4-tert-butyl-2-fluorobenzamido)-2-methylpiperidin-1-yl]-3-[(1-methyl-1H-pyrazol-4-yl)amino]pyrazine-2-carboxamide] |
| 100 to 1000 nM | ≤ 10 nM | 10 to 100 nM | C[C@@H]1[C@H](NC(=O)c2ccc3c(c2)OCCO3)CCCN1c1cnc(C(N)=O)c(Nc2cnn(C)c2)n1 [Example D-224, 5-[(2R,3R)-3-(2,3-dihydro-1,4-benzodioxine-6-amido)-2-methylpiperidin-1-yl]-3-[(1-methyl-1H-pyrazol-4-yl)amino]pyrazine-2-carboxamide] |
